From ChEMBL document CHEMBL3992482 (Medchemcomm, 2016)
The source made the active and inactive calls. The rule behind the calls is not given here.

Tests used:
HeLa [1] = assay: Cytotoxicity against human HeLa cells assessed as reduction in cell viability after 48 hrs by MTT assay; assay type: functional, cell-based
A549 = assay: Cytotoxicity against human A549 cells assessed as reduction in cell viability after 48 hrs by MTT assay; assay type: functional, cell-based; settings: A549, 48 h
MCF7 = assay: Cytotoxicity against human MCF7 cells assessed as reduction in cell viability after 48 hrs by MTT assay; assay type: functional, cell-based; settings: MCF7, 48 h
HeLa [2] = assay: Induction of apoptosis in human HeLa cells assessed as chromatin condensation after 24 hrs by acridine orange/ethidium bromide staining based fluorescence confocal microscopic method; assay type: functional, cell-based
HeLa [3] = assay: Induction of apoptosis in human HeLa cells assessed as nuclear fragmentation after 24 hrs by acridine orange/ethidium bromide staining based fluorescence confocal microscopic method; assay type: functional, cell-based
HeLa [4] = assay: Induction of apoptosis in human HeLa cells assessed as crescent shaped cell masses at 5 to 10 uM after 24 hrs by […] staining based fluorescence microscopic method; assay type: functional
HeLa [5] = assay: Induction of apoptosis in human HeLa cells assessed as ring shaped cell masses at 5 to 10 uM after 24 hrs by […] staining based fluorescence microscopic method; assay type: functional
HeLa [6] = assay: Induction of apoptosis in human HeLa cells after 24 hrs by Annexin-V FITC/propidium iodide staining based flow cytometry; assay type: functional, cell-based
HeLa [7] = assay: Induction of apoptosis in human HeLa cells assessed as necrotic cells at 5 uM after 24 hrs by Annexin-V FITC/propidium iodide staining based flow cytometry (reference value: 1.81%); assay type: functional
HeLa [8] = assay: Induction of apoptosis in human HeLa cells assessed as late apoptotic cells at 5 uM after 24 hrs by Annexin-V FITC/propidium iodide staining based flow cytometry (reference value: 0.29%); assay type: functional
HeLa [9] = assay: Induction of apoptosis in human HeLa cells assessed as early apoptotic cells at 5 uM after 24 hrs by Annexin-V FITC/propidium iodide staining based flow cytometry (reference value: 2.36%); assay type: functional
HeLa [10] = assay: Induction of apoptosis in human HeLa cells assessed as live cells at 5 uM after 24 hrs by Annexin-V FITC/propidium iodide staining based flow cytometry (reference value: 95.5%); assay type: functional
HeLa [11] = assay: Induction of apoptosis in human HeLa cells assessed as necrotic cells at 10 uM after 24 hrs by Annexin-V FITC/propidium iodide staining based flow cytometry (reference value: 1.81%); assay type: functional
HeLa [12] = assay: Induction of apoptosis in human HeLa cells assessed as late apoptotic cells at 10 uM after 24 hrs by Annexin-V FITC/propidium iodide staining based flow cytometry (reference value: 0.29%); assay type: functional
HeLa [13] = assay: Induction of apoptosis in human HeLa cells assessed as early apoptotic cells at 10 uM after 24 hrs by Annexin-V FITC/propidium iodide staining based flow cytometry (reference value: 2.36%); assay type: functional
HeLa [14] = assay: Induction of apoptosis in human HeLa cells assessed as live cells at 10 uM after 24 hrs by Annexin-V FITC/propidium iodide staining based flow cytometry (reference value: 95.5%); assay type: functional
HeLa [15] = assay: Cell cycle arrest in human HeLa cells assessed as accumulation at G1 phase at 5 uM after 24 hrs by propidium iodide staining based flow cytometry (reference value: 66.42%); assay type: functional
HeLa [16] = assay: Cell cycle arrest in human HeLa cells assessed as accumulation at G1 phase at 10 uM after 24 hrs by propidium iodide staining based flow cytometry (reference value: 66.42%); assay type: functional
HeLa [17] = assay: Cell cycle arrest in human HeLa cells assessed as accumulation at S phase at 5 uM after 24 hrs by propidium iodide staining based flow cytometry (reference value: 23.69%); assay type: functional
HeLa [18] = assay: Cell cycle arrest in human HeLa cells assessed as accumulation at S phase at 10 uM after 24 hrs by propidium iodide staining based flow cytometry (reference value: 23.69%); assay type: functional
HeLa [19] = assay: Cell cycle arrest in human HeLa cells assessed as accumulation at G2/M phase at 5 uM after 24 hrs by propidium iodide staining based flow cytometry (reference value: 9.89%); assay type: functional
HeLa [20] = assay: Cell cycle arrest in human HeLa cells assessed as accumulation at G2/M phase at 10 uM after 24 hrs by propidium iodide staining based flow cytometry (reference value: 9.89%); assay type: functional
HeLa [21] = assay: Cell cycle arrest in human HeLa cells assessed as accumulation at S phase after 24 hrs by propidium iodide staining based flow cytometry; assay type: functional

Structure (SMILES) | IC50 (HeLa [1]) [µM] | IC50 (A549) [µM] | IC50 (MCF7) [µM] | other results
CC(C)(C)c1nc(Nc2cccc(Cl)c2)sc1Cc1ccc2c(c1)OCO2 | 8.27 | 2.06 | 3 | –
CCOC(=O)c1ccc(Nc2nc(C(C)(C)C)c(Cc3ccc4c(c3)OCO4)s2)cc1 | 47.5 | 8.51 | 5.95 | –
CC(C)(C)c1nc(Nc2ccc(Cl)c(Cl)c2)sc1Cc1ccc2c(c1)OCO2 | 7.83 | 11.5 | 11.2 | –
CC(C)(C)c1nc(Nc2cc(Cl)cc(Cl)c2)sc1Cc1ccc2c(c1)OCO2 | 5.8 | 17 | 17.7 | –
CC(C)(C)c1nc(Nc2ccc(C(F)(F)F)cc2)sc1Cc1ccc2c(c1)OCO2 | 10.4 | 9.22 | 3.54 | –
CC(C)(C)c1nc(Nc2cccc(Cl)c2Cl)sc1Cc1ccc2c(c1)OCO2 | 34.6 | 14.2 | 19.4 | –
Cc1ccc(Nc2nc(C(C)(C)C)c(Cc3ccc4c(c3)OCO4)s2)c(C)c1 | 18.9 | 11.3 | 18.7 | –
Cc1ccccc1Nc1nc(C(C)(C)C)c(Cc2ccc3c(c2)OCO3)s1 | 24.8 | 18.7 | 19.1 | –
CC(C)(C)c1nc(Nc2ccccc2Br)sc1Cc1ccc2c(c1)OCO2 | 52 | 26.1 | 39.9 | –
CC(C)(C)c1nc(Nc2ccccc2[N+](=O)[O-])sc1Cc1ccc2c(c1)OCO2 | 194 | 82.8 | > 200 | –
CC(C)(C)c1nc(Nc2c(Br)cc(OC(F)(F)F)cc2Br)sc1Cc1ccc2c(c1)OCO2 | 53.3 | 103 | 103 | –
CC(C)(C)c1nc(Nc2cccc(C(F)(F)F)c2)sc1Cc1ccc2c(c1)OCO2 | 13 | 15.8 | 3.32 | –
CC(C)(C)c1nc(Nc2ccc(Br)cc2)sc1Cc1ccc2c(c1)OCO2 | 13.3 | 10.1 | 4.71 | –
CC(C)(C)c1nc(Nc2cccc(Br)c2)sc1Cc1ccc2c(c1)OCO2 | 6.43 | 5 | 4.66 | –
COc1ccc(Nc2nc(C(C)(C)C)c(Cc3ccc4c(c3)OCO4)s2)cc1 | 11.7 | 10.1 | 9.36 | –
CC(=O)O[C@H]1C(=O)[C@@]2(C)[C@H]([C@H](OC(=O)c3ccccc3)[C@]3(O)C[C@H](OC(=O)[C@H](O)[C@@H](NC(=O)c4ccccc4)c4ccccc4)C(C)=C1C3(C)C)[C@]1(OC(C)=O)CO[C@@H]1C[C@@H]2O [PACLITAXEL] | 19.3 | 21 | 14 | –
O=c1[nH]cc(F)c(=O)[nH]1 [FLUOROURACIL] | 56.5 | 26 | 79.3 | –

Structure (SMILES) | IC50 (HeLa [1]) [µM] | IC50 (A549) [µM] | IC50 (MCF7) [µM] | other results
CC(C)(C)c1nc(Nc2cc(C(F)(F)F)cc(C(F)(F)F)c2)sc1Cc1ccc2c(c1)OCO2 | 2.07 | 3.52 | 9.03 | Activity (HeLa [2]): Dose-dependent effect; Activity (HeLa [3]): Dose-dependent effect; Activity (HeLa [4]): Active; Activity (HeLa [5]): Active; Activity (HeLa [6]): Dose-dependent effect; Activity (HeLa [7]): 0.69%; Activity (HeLa [8]): 2.27%; Activity (HeLa [9]): 19.2%; Activity (HeLa [10]): 77.8%; Activity (HeLa [11]): 0.23%; Activity (HeLa [12]): 1.94%; Activity (HeLa [13]): 62.7%; Activity (HeLa [14]): 35.1%; Activity (HeLa [15]): 56.87%; Activity (HeLa [16]): 46.14%; Activity (HeLa [17]): 27.1%; Activity (HeLa [18]): 35.93%; Activity (HeLa [19]): 16.03%; Activity (HeLa [20]): 17.93%; Activity (HeLa [21]): Dose-dependent effect
Cc1cccc(C)c1Nc1nc(C(C)(C)C)c(Cc2ccc3c(c2)OCO3)s1 | 83.5 | 15.9 | 20.1 | –
CC(C)(C)c1nc(Nc2ccccn2)sc1Cc1ccc2c(c1)OCO2 | 4.79 | 5.13 | 4.71 | –
CC(C)(C)c1nc(Nc2ccccc2F)sc1Cc1ccc2c(c1)OCO2 | 18.3 | 7.57 | 4.49 | –
CC(C)(C)c1nc(Nc2ccc([N+](=O)[O-])cc2Cl)sc1Cc1ccc2c(c1)OCO2 | 51.7 | 80.9 | 76.5 | –
CC(C)(C)c1nc(Nc2ccc([N+](=O)[O-])cc2)sc1Cc1ccc2c(c1)OCO2 | 4.15 | 8.26 | 2.55 | –
CC(C)(C)c1nc(Nc2ccccc2)sc1Cc1ccc2c(c1)OCO2 | 12 | 20.4 | 11.6 | –
Cc1cccc(Nc2nc(C(C)(C)C)c(Cc3ccc4c(c3)OCO4)s2)c1 | 18.8 | 12.7 | 4.91 | –
CC(C)(C)c1nc(Nc2ccc(Cl)cc2)sc1Cc1ccc2c(c1)OCO2 | 11 | 9.19 | 3.48 | –
CC(C)(C)c1nc(Nc2ccccc2Cl)sc1Cc1ccc2c(c1)OCO2 | 18.9 | 6.84 | 8.99 | –
Cc1ccc2cccc(Nc3nc(C(C)(C)C)c(Cc4ccc5c(c4)OCO5)s3)c2n1 | 65.1 | 55.5 | > 200 | –
CC(C)(C)c1nc(Nc2ccc([N+](=O)[O-])cc2F)sc1Cc1ccc2c(c1)OCO2 | 19.3 | 67.2 | 33.3 | –
CC(C)(C)c1nc(Nc2ccc(F)cc2)sc1Cc1ccc2c(c1)OCO2 | 25.3 | 5.81 | 15 | –
CC(C)(C)c1nc(Nc2cccc3ccccc23)sc1Cc1ccc2c(c1)OCO2 | 14.1 | 55.2 | 22.3 | –
CC(C)(C)c1nc(Nc2ccc(F)c(Cl)c2)sc1Cc1ccc2c(c1)OCO2 | 4.6 | 16.3 | 8.66 | Activity (HeLa [2]): Dose-dependent effect; Activity (HeLa [3]): Dose-dependent effect; Activity (HeLa [4]): Active; Activity (HeLa [5]): Active; Activity (HeLa [6]): Dose-dependent effect; Activity (HeLa [7]): 0.61%; Activity (HeLa [8]): 1.58%; Activity (HeLa [9]): 11.7%; Activity (HeLa [10]): 86.1%; Activity (HeLa [11]): 0.94%; Activity (HeLa [12]): 4.39%; Activity (HeLa [13]): 19.5%; Activity (HeLa [14]): 75.2%; Activity (HeLa [15]): 60.8%; Activity (HeLa [16]): 53.81%; Activity (HeLa [17]): 28.69%; Activity (HeLa [18]): 36.63%; Activity (HeLa [19]): 10.51%; Activity (HeLa [20]): 9.56%; Activity (HeLa [21]): Dose-dependent effect
Cc1ccc(Nc2nc(C(C)(C)C)c(Cc3ccc4c(c3)OCO4)s2)cc1C | 20.7 | 12.2 | 20.4 | –
